Series [1] has as its target T1, galactosamine-6-sulfatase (GALNS) (Homo sapiens, UniProt P34059).
T1 sequence (P34059 27-522): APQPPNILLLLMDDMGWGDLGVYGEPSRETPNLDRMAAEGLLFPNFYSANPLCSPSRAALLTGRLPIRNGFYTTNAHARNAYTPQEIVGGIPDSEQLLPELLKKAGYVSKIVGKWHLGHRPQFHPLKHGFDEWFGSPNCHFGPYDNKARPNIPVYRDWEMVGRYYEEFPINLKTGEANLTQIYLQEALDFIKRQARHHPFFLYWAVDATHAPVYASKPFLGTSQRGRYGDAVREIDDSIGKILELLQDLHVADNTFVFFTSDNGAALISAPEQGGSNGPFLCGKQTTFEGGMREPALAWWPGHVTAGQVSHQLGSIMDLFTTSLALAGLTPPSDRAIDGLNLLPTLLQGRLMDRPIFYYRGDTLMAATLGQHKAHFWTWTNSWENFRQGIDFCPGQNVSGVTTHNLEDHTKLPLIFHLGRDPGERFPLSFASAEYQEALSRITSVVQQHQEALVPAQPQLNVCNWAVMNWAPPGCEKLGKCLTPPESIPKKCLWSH
Put plainly: biochemical.

Substrate in series [2]: Cc1cc(=O)oc2cc(O[C@@H]3O[C@H](COS(=O)(=O)O)[C@H](O)[C@H](O)[C@H]3O)ccc12
The class given is biochemical, Homo sapiens. Particulars: Ca2+; Cys79 modified to formylglycine/dihydroxyalanine (DHA) active site.

This note sets out measurements from article PMC3472114 (Journal of molecular biology, 2012).

For the molecule `O=S(=O)(O)O` [sulfate], the Ki in series [1] came out at 570 ± 150 µM.

B1: galactosamine-6-sulfatase (GALNS) (Homo sapiens) (protein)
chain: T1 sequence (P34059 27-522)
For the molecule B1, the Km in series [2] amounted to 13 ± 2 mM.

A word on the Ki: it is the equilibrium dissociation constant of an inhibitor or competing ligand from its target. A higher Ki goes with a looser hold on the target. In general, Km refers to the substrate concentration at which the rate is half of its maximum.
